Laboratory results taken from PubChem BioAssay AID2060902 (Molecular Pharmacology Branch, DTP, NCI, 2025).

System: 485368-065-R3-J5-PDC spheroids with HUVEC/MSC, viability
Assay: Anticancer human tumor 485368-065-R3-J5-PDC patient-derived pancreatic carcinoma cell line growth inhibition [RAS]
Conditions: for IC50: curve of first compound; for viability, T/C: stronger effect = lower value
In short: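 Tumour cells grown as complex spheroids with HUVEC endothelial cells and mesenchymal stem cells, treated with RAS pathway inhibitor combinations. Each agent spans half-log steps from near clinical Cmax, or 10 microM where Cmax is unknown.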

[1] = second compound 0.000949 µM, first compound 0.000949 µM
[2] = second compound 0.000949 µM, first compound 0.003 µM
[3] = second compound 0.000949 µM, first compound 0.00949 µM
[4] = second compound 0.000949 µM, first compound 0.03 µM
[5] = second compound 0.000949 µM, first compound 0.0949 µM
[6] = second compound 0.000949 µM, first compound 0.3 µM
[7] = second compound 0.003 µM, first compound 0.000949 µM
[8] = second compound 0.003 µM, first compound 0.003 µM
[9] = second compound 0.003 µM, first compound 0.00949 µM
[10] = second compound 0.003 µM, first compound 0.03 µM
[11] = second compound 0.003 µM, first compound 0.0949 µM
[12] = second compound 0.003 µM, first compound 0.3 µM
[13] = second compound 0.00949 µM, first compound 0.000949 µM
[14] = second compound 0.00949 µM, first compound 0.003 µM
[15] = second compound 0.00949 µM, first compound 0.00949 µM
[16] = second compound 0.00949 µM, first compound 0.03 µM
[17] = second compound 0.00949 µM, first compound 0.0949 µM
[18] = second compound 0.00949 µM, first compound 0.3 µM
[19] = second compound 0.03 µM, first compound 0.000949 µM
[20] = second compound 0.03 µM, first compound 0.003 µM
[21] = second compound 0.03 µM, first compound 0.00949 µM
[22] = second compound 0.03 µM, first compound 0.03 µM
[23] = second compound 0.03 µM, first compound 0.0949 µM
[24] = second compound 0.03 µM, first compound 0.3 µM
[25] = second compound 0.0949 µM, first compound 0.000949 µM
[26] = second compound 0.0949 µM, first compound 0.003 µM
[27] = second compound 0.0949 µM, first compound 0.00949 µM
[28] = second compound 0.0949 µM, first compound 0.03 µM
[29] = second compound 0.0949 µM, first compound 0.0949 µM
[30] = second compound 0.0949 µM, first compound 0.3 µM
[31] = second compound 0.3 µM, first compound 0.000949 µM
[32] = second compound 0.3 µM, first compound 0.003 µM
[33] = second compound 0.3 µM, first compound 0.00949 µM
[34] = second compound 0.3 µM, first compound 0.03 µM
[35] = second compound 0.3 µM, first compound 0.0949 µM
[36] = second compound 0.3 µM, first compound 0.3 µM
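Further: spheroids exposed to agents for seven days before readout.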

For `C=CC(=O)N1CCN(c2nc(OCC3CCCN3C)nc3c(F)c(-c4nc(N)cc(C)c4C(F)(F)F)c(Cl)cc23)C(C)C1` (stereo unspecified) + CCn1c(-c2cccnc2C(C)OC)c2c3cc(ccc31)N1CCOC(CC(NC(=O)C(C(C)C)N(C)C(=O)C3(F)CCN(C(=O)C#CC(C)(C)N(C)C)CC3)C(=O)N3CCCC(N3)C(=O)OCC(C)(C)C2)C1, the IC50 (second compound 0.000949 µM) was > 1000 nM, the IC50 (second compound 0.003 µM) was > 1000 nM and the IC50 (second compound 0.00949 µM) was > 1000 nM. For the same compound, the IC50 (second compound 0.03 µM) was > 1000 nM, the IC50 (second compound 0.0949 µM) was > 1000 nM and the IC50 (second compound 0.3 µM) was > 1000 nM. For the same compound, the viability, T/C (second compound 0.000949 µM, first compound 0.00316 µM) was 113%, the viability, T/C (second compound 0.000949 µM, first compound 0.01 µM) was 96% and the viability, T/C (second compound 0.000949 µM, first compound 0.0316 µM) was 102%. The viability, T/C (second compound 0.000949 µM, first compound 0.1 µM) was 99.8%, the viability, T/C (second compound 0.000949 µM, first compound 0.316 µM) was 105% and the viability, T/C (second compound 0.000949 µM, first compound 1 µM) was 97.5%. It also gave a viability, T/C (second compound 0.003 µM, first compound 0.00316 µM) of 110%, a viability, T/C (second compound 0.003 µM, first compound 0.01 µM) of 99.5% and a viability, T/C (second compound 0.003 µM, first compound 0.0316 µM) of 107%. It also gave a viability, T/C (second compound 0.003 µM, first compound 0.1 µM) of 101%, a viability, T/C (second compound 0.003 µM, first compound 0.316 µM) of 119% and a viability, T/C (second compound 0.003 µM, first compound 1 µM) of 107%. It also gave a viability, T/C (second compound 0.00949 µM, first compound 0.00316 µM) of 95.9%, a viability, T/C (second compound 0.00949 µM, first compound 0.01 µM) of 104% and a viability, T/C (second compound 0.00949 µM, first compound 0.0316 µM) of 97.1%. The viability, T/C (second compound 0.00949 µM, first compound 0.1 µM) was 103%, the viability, T/C (second compound 0.00949 µM, first compound 0.316 µM) was 110% and the viability, T/C (second compound 0.00949 µM, first compound 1 µM) was 104%. The viability, T/C (second compound 0.03 µM, first compound 0.00316 µM) was 87.6%, the viability, T/C (second compound 0.03 µM, first compound 0.01 µM) was 99.6% and the viability, T/C (second compound 0.03 µM, first compound 0.0316 µM) was 97.3%. It also gave a viability, T/C (second compound 0.03 µM, first compound 0.1 µM) of 106%, a viability, T/C (second compound 0.03 µM, first compound 0.316 µM) of 107% and a viability, T/C (second compound 0.03 µM, first compound 1 µM) of 108%. The viability, T/C (second compound 0.0949 µM, first compound 0.00316 µM) was 99.4%, the viability, T/C (second compound 0.0949 µM, first compound 0.01 µM) was 99.8% and the viability, T/C (second compound 0.0949 µM, first compound 0.0316 µM) was 108%. For the same compound, the viability, T/C (second compound 0.0949 µM, first compound 0.1 µM) was 93.9%, the viability, T/C (second compound 0.0949 µM, first compound 0.316 µM) was 115% and the viability, T/C (second compound 0.0949 µM, first compound 1 µM) was 93.1%. For the same compound, the viability, T/C (second compound 0.3 µM, first compound 0.00316 µM) was 96.2%, the viability, T/C (second compound 0.3 µM, first compound 0.01 µM) was 104% and the viability, T/C (second compound 0.3 µM, first compound 0.0316 µM) was 95.6%. The viability, T/C (second compound 0.3 µM, first compound 0.1 µM) was 106%, the viability, T/C (second compound 0.3 µM, first compound 0.316 µM) was 105% and the viability, T/C (second compound 0.3 µM, first compound 1 µM) was 94.8%.
Work on `CC1(C)CCC(Nc2ncc(C(F)(F)F)c(-c3c[nH]c4c(P(C)(C)=O)c(C#N)ccc34)n2)CN1` (stereo unspecified) + CCn1c(-c2cccnc2C(C)OC)c2c3cc(ccc31)N1CCOC(CC(NC(=O)C(C(C)C)N(C)C(=O)C3(F)CCN(C(=O)C#CC(C)(C)N(C)C)CC3)C(=O)N3CCCC(N3)C(=O)OCC(C)(C)C2)C1 yielded an IC50 (second compound 0.000949 µM) of 9.04 nM, an IC50 (second compound 0.003 µM) of 15.7 nM and an IC50 (second compound 0.00949 µM) of 8.62 nM. For the same compound, the IC50 (second compound 0.03 µM) was 7.35 nM, the IC50 (second compound 0.0949 µM) was 13.6 nM and the IC50 (second compound 0.3 µM) was 17.6 nM. For the same compound, the viability, T/C [1] was 116%, the viability, T/C [2] was 85.7% and the viability, T/C [3] was 48%. It also gave a viability, T/C [4] of 47.1%, a viability, T/C [5] of 43.6% and a viability, T/C [6] of 39.9%. The viability, T/C [7] was 109%, the viability, T/C [8] was 73.9% and the viability, T/C [9] was 61%. For the same compound, the viability, T/C [10] was 40.3%, the viability, T/C [11] was 32.7% and the viability, T/C [12] was 35.9%. For the same compound, the viability, T/C [13] was 107%, the viability, T/C [14] was 86.7% and the viability, T/C [15] was 46.6%. For the same compound, the viability, T/C [16] was 40.9%, the viability, T/C [17] was 42.5% and the viability, T/C [18] was 38.2%. The viability, T/C [19] was 108%, the viability, T/C [20] was 66.1% and the viability, T/C [21] was 47.4%. It also gave a viability, T/C [22] of 35.2%, a viability, T/C [23] of 38.3% and a viability, T/C [24] of 45.3%. For the same compound, the viability, T/C [25] was 104%, the viability, T/C [26] was 76.2% and the viability, T/C [27] was 54.9%. For the same compound, the viability, T/C [28] was 39.9%, the viability, T/C [29] was 39% and the viability, T/C [30] was 35.5%. For the same compound, the viability, T/C [31] was 102%, the viability, T/C [32] was 92.3% and the viability, T/C [33] was 55.1%. For the same compound, the viability, T/C [34] was 47%, the viability, T/C [35] was 45.6% and the viability, T/C [36] was 42.6%.
`CCc1c2c(nc3ccc(O)cc13)-c1cc3c(c(=O)n1C2)COC(=O)[C@]3(O)CC` + CCn1c(-c2cccnc2C(C)OC)c2c3cc(ccc31)N1CCOC(CC(NC(=O)C(C(C)C)N(C)C(=O)C3(F)CCN(C(=O)C#CC(C)(C)N(C)C)CC3)C(=O)N3CCCC(N3)C(=O)OCC(C)(C)C2)C1 gave an IC50 (second compound 0.000949 µM) of 2.21 nM, an IC50 (second compound 0.003 µM) of 2.28 nM and an IC50 (second compound 0.00949 µM) of 2.14 nM. For the same compound, the IC50 (second compound 0.03 µM) was 2.27 nM, the IC50 (second compound 0.0949 µM) was 2.05 nM and the IC50 (second compound 0.3 µM) was 2.01 nM. It also gave a viability, T/C [1] of 84.3%, a viability, T/C [2] of 36.9% and a viability, T/C [3] of 17%. For the same compound, the viability, T/C [4] was 7.78%, the viability, T/C [5] was 3.95% and the viability, T/C [6] was 3.3%. The viability, T/C [7] was 84.1%, the viability, T/C [8] was 39.3% and the viability, T/C [9] was 15.1%. It also gave a viability, T/C [10] of 6.58%, a viability, T/C [11] of 5.33% and a viability, T/C [12] of 2.88%. It also gave a viability, T/C [13] of 76.9%, a viability, T/C [14] of 39.2% and a viability, T/C [15] of 14.8%. It also gave a viability, T/C [16] of 8.64%, a viability, T/C [17] of 4.69% and a viability, T/C [18] of 3.02%. It also gave a viability, T/C [19] of 88.8%, a viability, T/C [20] of 37.2% and a viability, T/C [21] of 15.9%. It also gave a viability, T/C [22] of 8.19%, a viability, T/C [23] of 3.98% and a viability, T/C [24] of 2.16%. For the same compound, the viability, T/C [25] was 88.1%, the viability, T/C [26] was 29.7% and the viability, T/C [27] was 14.8%. The viability, T/C [28] was 6.96%, the viability, T/C [29] was 4.68% and the viability, T/C [30] was 2.71%. The viability, T/C [31] was 82.5%, the viability, T/C [32] was 32.2% and the viability, T/C [33] was 12.6%. For the same compound, the viability, T/C [34] was 9.2%, the viability, T/C [35] was 5.3% and the viability, T/C [36] was 2.3%.
